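Where inhibition never reached the appropriate level, the endpoint shown equals the highest concentration tested. Otherwise, values were interpolated linearly from a five-concentration, 48-hour dose response in 96-well plates. GI50 = concentration required for 50% inhibition of growth.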 Calls of active or inactive are those of the source. Cut-off read from the data, not from the text of the source: active = GI50 up to about 1.1 µM and inactive = higher.
Key:
Experiment in all cases: growth of human tumour cells (NCI), 48 h
786-0 = tested on: 786-0
A549 = tested on: A549
ACHN = tested on: ACHN
BT-549 = tested on: BT-549
CAKI-1 = tested on: CAKI-1
CCRF-CEM = tested on: CCRF-CEM
COLO 205 = tested on: COLO 205
DU-145 = tested on: DU-145
EKVX = tested on: EKVX
HCC 2998 = tested on: HCC 2998
HCT-116 = tested on: HCT-116
HCT-15 = tested on: HCT-15
HL-60 = tested on: HL-60
HOP-62 = tested on: HOP-62
HT-29 = tested on: HT-29
Hs-578T = tested on: Hs-578T
IGROV-1 = tested on: IGROV-1
K562 = tested on: K562
KM12 = tested on: KM12
M14 = tested on: M14
MCF7 = tested on: MCF7
MDA-MB-231 = tested on: MDA-MB-231
MDA-MB-435 = tested on: MDA-MB-435
MDA-N = tested on: MDA-N
MOLT-4 = tested on: MOLT-4
NCI-H226 = tested on: NCI-H226
NCI-H23 = tested on: NCI-H23
NCI-H460 = tested on: NCI-H460
NCI-H522 = tested on: NCI-H522
NCI/ADR-RES = tested on: NCI/ADR-RES
OVCAR-4 = tested on: OVCAR-4
OVCAR-8 = tested on: OVCAR-8
PC-3 = tested on: PC-3
RPMI-8226 = tested on: RPMI-8226
RXF 393 = tested on: RXF 393
SF-268 = tested on: SF-268
SF-539 = tested on: SF-539
SK-MEL-28 = tested on: SK-MEL-28
SK-MEL-5 = tested on: SK-MEL-5
SK-OV-3 = tested on: SK-OV-3
SN12C = tested on: SN12C
SNB-19 = tested on: SNB-19
SNB-75 = tested on: SNB-75
SR = tested on: SR
SW-620 = tested on: SW-620
T47D = tested on: T47D
TK-10 = tested on: TK-10
U-251 = tested on: U-251
UACC-257 = tested on: UACC-257
UACC-62 = tested on: UACC-62
UO-31 = tested on: UO-31
A498 = tested on: A498
HOP-92 = tested on: HOP-92
LOX IMVI = tested on: LOX IMVI
Malme-3M = tested on: Malme-3M
OVCAR-3 = tested on: OVCAR-3
OVCAR-5 = tested on: OVCAR-5
SF-295 = tested on: SF-295
SK-MEL-2 = tested on: SK-MEL-2

Compound: CC(=O)Oc1ccc2c(c1)O/C(=C\c1ccc(N(C)C)cc1)C2=O
- GI50 (786-0): > 100 µM (inactive)
- GI50 (A549): > 100 µM (inactive)
- GI50 (ACHN): > 100 µM (inactive)
- GI50 (BT-549): 68.4 µM (inactive)
- GI50 (CAKI-1): > 100 µM (inactive)
- GI50 (CCRF-CEM): 82.4 µM (inactive)
- GI50 (COLO 205): > 100 µM (inactive)
- GI50 (DU-145): > 100 µM (inactive)
- GI50 (EKVX): > 100 µM (inactive)
- GI50 (HCC 2998): > 100 µM (inactive)
- GI50 (HCT-116): 85.5 µM (inactive)
- GI50 (HCT-15): 67 µM
- GI50 (HL-60): 32.7 µM (inactive)
- GI50 (HOP-62): > 100 µM (inactive)
- GI50 (HT-29): > 100 µM (inactive)
- GI50 (Hs-578T): 21 µM (inactive)
- GI50 (IGROV-1): > 100 µM (inactive)
- GI50 (K562): 27.9 µM (inactive)
- GI50 (KM12): 90.8 µM (inactive)
- GI50 (M14): > 100 µM (inactive)
- GI50 (MCF7): > 100 µM (inactive)
- GI50 (MDA-MB-231): 68.5 µM (inactive)
- GI50 (MDA-MB-435): 35.3 µM (inactive)
- GI50 (MDA-N): 36.4 µM (inactive)
- GI50 (MOLT-4): 47.1 µM (inactive)
- GI50 (NCI-H226): > 100 µM (inactive)
- GI50 (NCI-H23): > 100 µM (inactive)
- GI50 (NCI-H460): 70.1 µM (inactive)
- GI50 (NCI-H522): 25.9 µM (inactive)
- GI50 (NCI/ADR-RES): 29.6 µM (inactive)
- GI50 (OVCAR-4): 75.2 µM (inactive)
- GI50 (OVCAR-8): > 100 µM (inactive)
- GI50 (PC-3): > 100 µM (inactive)
- GI50 (RPMI-8226): 54.6 µM (inactive)
- GI50 (RXF 393): 73.5 µM (inactive)
- GI50 (SF-268): > 100 µM (inactive)
- GI50 (SF-539): 26.4 µM (inactive)
- GI50 (SK-MEL-28): > 100 µM (inactive)
- GI50 (SK-MEL-5): > 100 µM (inactive)
- GI50 (SK-OV-3): > 100 µM (inactive)
- GI50 (SN12C): 62.7 µM (inactive)
- GI50 (SNB-19): 53.8 µM (inactive)
- GI50 (SNB-75): 87.9 µM (inactive)
- GI50 (SR): 37.2 µM (inactive)
- GI50 (SW-620): 52.2 µM (inactive)
- GI50 (T47D): > 100 µM (inactive)
- GI50 (TK-10): > 100 µM (inactive)
- GI50 (U-251): 37.7 µM (inactive)
- GI50 (UACC-257): > 100 µM (inactive)
- GI50 (UACC-62): > 100 µM (inactive)
- GI50 (UO-31): 26.3 µM (inactive)

Compound: O=[N+]([O-])C(C(Cl)=C(Cl)Cl)=C(N(Cc1ccccc1)Cc1ccccc1)N(Cc1ccccc1)Cc1ccccc1
- GI50 (786-0): 48.8 µM (inactive)
- GI50 (A498): 30.5 µM (inactive)
- GI50 (A549): > 100 µM (inactive)
- GI50 (ACHN): 82 µM (inactive)
- GI50 (BT-549): > 100 µM (inactive)
- GI50 (CAKI-1): > 100 µM (inactive)
- GI50 (CCRF-CEM): 22.2 µM (inactive)
- GI50 (COLO 205): 57 µM (inactive)
- GI50 (DU-145): > 100 µM (inactive)
- GI50 (EKVX): 66.7 µM (inactive)
- GI50 (HCC 2998): 24 µM (inactive)
- GI50 (HCT-116): 42.1 µM (inactive)
- GI50 (HCT-15): > 100 µM
- GI50 (HL-60): 17.3 µM (inactive)
- GI50 (HOP-62): 43.7 µM (inactive)
- GI50 (HOP-92): 15.6 µM (inactive)
- GI50 (HT-29): 33 µM (inactive)
- GI50 (Hs-578T): > 100 µM (inactive)
- GI50 (IGROV-1): 45.1 µM (inactive)
- GI50 (K562): 33.7 µM (inactive)
- GI50 (KM12): > 100 µM (inactive)
- GI50 (LOX IMVI): 32.4 µM (inactive)
- GI50 (M14): 34.8 µM (inactive)
- GI50 (MCF7): > 100 µM (inactive)
- GI50 (MDA-MB-231): 70.6 µM (inactive)
- GI50 (MDA-MB-435): 28.2 µM (inactive)
- GI50 (MDA-N): 45.3 µM (inactive)
- GI50 (MOLT-4): > 100 µM (inactive)
- GI50 (Malme-3M): 34 µM (inactive)
- GI50 (NCI-H226): 36.6 µM (inactive)
- GI50 (NCI-H23): > 100 µM (inactive)
- GI50 (NCI-H460): 56.9 µM (inactive)
- GI50 (NCI-H522): > 100 µM (inactive)
- GI50 (NCI/ADR-RES): > 100 µM (inactive)
- GI50 (OVCAR-3): > 100 µM (inactive)
- GI50 (OVCAR-5): 30.2 µM (inactive)
- GI50 (OVCAR-8): > 100 µM (inactive)
- GI50 (PC-3): 53.7 µM (inactive)
- GI50 (RXF 393): 92.9 µM (inactive)
- GI50 (SF-268): > 100 µM (inactive)
- GI50 (SF-295): 27.9 µM (inactive)
- GI50 (SF-539): 30.3 µM (inactive)
- GI50 (SK-MEL-28): > 100 µM (inactive)
- GI50 (SK-MEL-2): 36.4 µM (inactive)
- GI50 (SK-MEL-5): 42.8 µM (inactive)
- GI50 (SK-OV-3): 38.1 µM (inactive)
- GI50 (SN12C): 29.3 µM (inactive)
- GI50 (SNB-19): > 100 µM (inactive)
- GI50 (SNB-75): > 100 µM (inactive)
- GI50 (SW-620): > 100 µM (inactive)
- GI50 (T47D): > 100 µM (inactive)
- GI50 (TK-10): > 100 µM (inactive)
- GI50 (U-251): > 100 µM (inactive)
- GI50 (UACC-257): > 100 µM (inactive)
- GI50 (UACC-62): > 100 µM (inactive)
- GI50 (UO-31): 45.8 µM (inactive)
